Laboratory results published in patent publication US8395037B2, “Pharmaceutical compositions for treating/preventing motor organ diseases” (Mitsubishi Corporation, priority 2005, dated 2013).

What was measured:
[1] = system: osteoarthritis patient-derived chondrocytes; experiment: Cytotoxicity test (XTT method) on chondrocytes; format: cell-based, human; details: for Cell survival rate (%): relative to control (medium alone) = 100%
Method: (§1) Chondrocytes isolated from human articular cartilage tissues were used for cultured cells. After obtaining informed consent, cartilage tissues were collected from surgically-removed tissues from eight osteoarthritis patients. The collected tissues were sliced and then treated in a liquid low-glucose Dulbecco's modified Eagle's medium (DMEM, manufactured by Gibco Co.) containing 1.5 mg/ml collagenase B at 37° C. overnight, to isolate chondrocytes for culture. The cells were normally cultured in a culture flask (culture area: 25 cm^2), and in a polystyrene culture dish (diameter: 6 cm) for use in the experiments. The cell culture was performed using a DMEM medium added with inactivated fetal bovine serum (FBS, manufactured by TRACE Co.) at 10% volume of the medium, and also 2 mM L-glutamine, 25 mM HEPES, and penicillin and streptomycin at 100 units/ml, in either a CO2 incubator (normoxic condition) which was set at 5% CO2+95% air, or a low oxygen chamber (hypoxic condition) which was set at 1% O2+5% CO2+94% N2, at 37° C. under saturated humidity.
Influence of hydroxylated C60 fullerene on the survival rate of chondrocytes was evaluated by a cytotoxicity test (XTT method). Hydroxylated C60 fullerene (manufactured by Frontier Carbon Co.) was dissolved in polyethylene glycol to prepare a 10 mM stock, which was then stored in a dark place at −20° C. The concentration of hydroxylated C60 fullerene for the test was 1.0 μM, 10.0 μM, and 100.0 μM.
50 μl each of chondrocytes in the logarithmic growth phase were added into a 96-well microplate at the concentration of 5.0×10^5 cells/ml, and incubated in either a CO2 incubator (normoxic condition) or a low oxygen chamber (hypoxic condition) for 24 hours. Hydroxylated C60 fullerene was added into the 96-well microplate at each target concentration described above (final volume: 100 μl), and the cells were incubated for 48 hours or 96 hours. Then, the medium was replaced to remove hydroxylated C60 fullerene, and the cells were incubated for another 12 hours. To stain surviving cells, 50 μl XTT (2,3bis(2-methoxy-4-nitro-5-sulfophenyl)-5-[(phenylamino)carbonyl]-2H-tetrazolium hydroxide, inner salt) reagent was added to each well, and the cells were incubated for four hours. Immediately thereafter, the absorbance at 450 nm was measured with a plate reader and the cell survival rates were analyzed. The results are shown as survival rates. The survival rate of the control group in a medium alone without hydroxylated C60 fullerene was assumed to be 100%, and the survival rate of the hydroxylated C60 fullerene-administered groups is expressed as relative values against the control group.

proteoglycan = experiment: Cartilage matrix (proteoglycan) production in cultured chondrocytes (ELISA); format: cell-based, human; details: for Cartilage matrix (proteoglycan)-synthesizing ability: decreased by IL-1β or H2O2, 50 and 100 μM, 24 h
Method: as §1
Influence of hydroxylated 60 fullerene on cartilage matrix (proteoglycan or type II collagen) production ability decreased by cartilage catabolism inducers was analyzed using ELISA.
Chondrocytes that had been isolated and cultured by the above method (1) were subjected to two secondary cultures. Then, these cells in a subconfluent state were disseminated into a 24 well-culture plate at 1×10^5 cells/well. After incubation for 12 hours, the wells were washed with PBS and the medium was replaced with a fresh 10% FBS-containing DMEM. […]
The production quantities (concentrations) of the cartilage matrix (proteoglycan and type II collagen) in the culture supernatant were determined using ELISA kits (a kit for proteoglycan, manufactured by BioSource; and a kit for type II collagen, manufactured by Chondrex, Inc.), which is the standard technique currently known in the art.

MMP-3 = MMP-3 production in cultured chondrocytes treated with cartilage degenerating factor (ELISA); format: cell-based, human; details: for Production of MMP-3: IL-1β or H2O2 treated chondrocytes, 50 or 100 μM, 24 h
Method: Chondrocytes isolated from human articular cartilage tissues were used for cultured cells. After obtaining informed consent, cartilage tissues were collected from surgically-removed tissues from eight osteoarthritis patients. The collected tissues were sliced and then treated in a liquid low-glucose Dulbecco's modified Eagle's medium (DMEM, manufactured by Gibco Co.) containing 1.5 mg/ml collagenase B at 37° C. overnight, to isolate chondrocytes for culture. The cells were normally cultured in a culture flask (culture area: 25 cm^2), and in a polystyrene culture dish (diameter: 6 cm) for use in the experiments. […]
Influence of hydroxylated C60 fullerene on cartilage matrix-degrading enzyme production which is enhanced by cartilage catabolism inducers was analyzed using the enzyme-linked immunoassay (ELISA) method.
Chondrocytes that had been isolated and cultured by the above method (1) were subjected to two passage cultures. […] After a 24 hour incubation, the culture supernatant was collected, and the concentrations of cartilage matrix-degrading enzymes, matrix metalloprotease (MMP)-1, 3, and 13, were measured.
The concentrations of MMP-1, MMP-3, and MMP-13 in the culture supernatant were determined using ELISA kits (kits for MMP-1 and MMP-3, manufactured by R&D Co.; and a kit for MMP-13, manufactured by Amersham), which is the standard technique currently known in the art. […] 100 μl of 1.5 N H3PO4 was added to each well to stop the color reaction, and the absorbance at 450 nm was measured using a microtiter plate reader. According to the instructions provided by the manufacturer, the measured concentrations were calibrated using a lyophilized control reagent.

[2] = system: osteoarthritis model rabbits
Method: Osteoarthritis animal model was prepared according to a general method. NZW-strain male rabbits (2 to 2.5 kg, purchased from Kitayama Labes Co.) were habituated for about one week, and both knee joint sites were shaved and disinfected with an iodine antiseptic agent under anesthesia with a combined administration of ketamine hydrochloride and xylazine (intramuscular administration, or intravenous administration if the anesthetic effect was low). The epidermis inside the knee joints was incised to expose the anterior cruciate ligament and medial collateral ligament, which were then cut out. After confirming and incising the articular capsule, the medial meniscus was exposed and totally extracted. Tissues around the articular capsule, patellar tendon, and epidermis were sutured thereafter. At the time of suturing, the operated site was washed with a physiological salt solution containing an antibiotic (injectable Viccillin, Meiji Seika) (500 mg (titer) as ampicillin sodium/20.0 ml of physiological saline solution).
From the postoperative first week, 2.0 ml of a hydroxylated C60 fullerene solution (100 μM, adjusted with the solvent polyethylene glycol) was injected into the right knee joint cavity, and 2.0 ml of solvent alone was injected into the left knee joint cavity, using a 23-gauge injection needle intraarticularly twice a week. […] Thickness of the degenerated cartilage layer and the number of chondrocytes in the degenerated cartilage layer were measured. The thickness of the degenerated cartilage layer was expressed as a relative value assuming that the immediate postoperative thickness (zeroth week) was 100%.
Moreover, proteoglycan content decrease in articular cartilage involved with cartilage degeneration was evaluated by safranin O staining. The evaluation result was expressed as an area ratio (%) to immediate postoperative proteoglycan-stained area.

hydroxylated C60 fullerene
Cell survival rate (%) ([1]; 1.0 μM, 48 hour incubation): 98.5 ± 6.5%
Cell survival rate (%) ([1]; 1.0 μM, 96 hour incubation): 99.6 ± 3.8%
Cell survival rate (%) ([1]; 10.0 μM, 48 hour incubation): 101.3 ± 5.8%
Cell survival rate (%) ([1]; 10.0 μM, 96 hour incubation): 98.2 ± 2.6%
Cell survival rate (%) ([1]; 100.0 μM, 48 hour incubation): 99.5 ± 4.2%
Cell survival rate (%) ([1]; 100.0 μM, 96 hour incubation): 103.4 ± 2.2%
Toxicity to chondrocytes ([1]; 1.0-100.0 μM, 48 or 96 hours): not to be toxic to chondrocytes
Cartilage matrix (proteoglycan)-synthesizing ability (proteoglycan): restored cartilage matrix synthesis
Cartilage matrix (proteoglycan)-synthesizing ability (proteoglycan; listed as hydroxylated 60 fullerene): able to restore the decreased synthesizing ability
Proteoglycan synthesizing ability (proteoglycan; fullerene alone, versus control groups): increased as compared to that of the control groups
Production of MMP-3 (MMP-3): inhibited in all cases
Production of MMP-3 (MMP-3; listed as fullerene): decreased the amount of MMP-3 produced
Inhibitory effect on production of MMP-3 (MMP-3; hypoxic condition): also observed
Chondrocytes and cartilage matrix, histology ([2]; 100 μM, 2.0 ml intraarticular twice a week, postoperative sixth and eighth week): histologically maintained
Degeneration of the knee joint cartilage tissue ([2]; 100 μM, 2.0 ml intraarticular twice a week, versus solvent alone): mild
Swelling/flare in articular local parts, influence on systemic condition ([2]; rabbit, in vivo): neither swelling/flare in articular local parts nor influence on systemic condition was observed
